Measurements reported in paper PMC12153294 (mBio, 2025).
Where “and” joins values, the source holds several entries; their conditions need not be identical. Equal values may be shown once. Read-outs that look alike come from different tables or passages of the source.

Assays:
[1] = molecular target: T1, SARS-CoV-2 Mac1 (Severe acute respiratory syndrome coronavirus 2, UniProt P0DTD1); test: biochemical; details: inhibition of Mac1 binding to ADP-ribosylated peptide; average of 2 independent experiments; read-out: Mac1 IC50 (AlphaScreen assay)
[2] = AlphaScreen counter screen with Bn-His6 control peptide; details: same figure table as Mac1 IC50 (μM), NI not defined; for IC50: Bn-His peptide control, unit inferred
Description: The AlphaScreen reactions were carried out in 384-well plates (Alphaplate, PerkinElmer, Waltham, MA) in a total volume of 40 µL in buffer containing 25 mM HEPES (pH 7.4), 100 mM NaCl, 0.5 mM TCEP, 0.1% BSA, and 0.05% CHAPS. All reagents were prepared as 4× stocks, and 10 µL of each reagent was added to a final volume of 40 µL. All compounds were transferred acoustically using ECHO 555 (Beckman Inc) and preincubated after mixing with purified His-tagged macrodomain protein (250 nM) for 30 min at RT, followed by the addition of a 10 amino acid biotinylated and ADP-ribosylated peptide [ARTK(Bio) QTARK (Aoa-RADP)S] (Cambridge peptides) (625 nM). After 1 h incubation at RT, streptavidin-coated donor beads (7.5 µg/mL) and nickel chelate acceptor beads (7.5 µg/mL) (PerkinElmer AlphaScreen Histidine Detection Kit) were added under low light conditions, and plates were shaken at 400 rpm for 60 min at RT protected from light. Plates were kept covered and protected from light at all steps and read on the BioTek plate reader using an AlphaScreen 680 excitation/570 emission filter set. For counter screening of the compounds, 25 nM biotinylated and hexahistidine-tagged linker peptide (Bn-His6) (PerkinElmer) was added to the compounds, followed by the addition of beads as described above. For data analysis, the percent inhibition was normalized to positive (DMSO+ labeled peptide) and negative (DMSO + macrodomain + peptide, no ADPr) controls. The IC50 values were calculated via four-parametric non-linear regression analysis, constraining bottom (=0), top (=100), & Hillslope (=1) for all curves.

[3] = molecular target: T1, SARS-CoV-2 Mac1; test: Differential scanning fluorimetry (DSF) thermal shift assay; format: binding; details: thermal stability of SARS-CoV-2 Mac1, increasing compound concentrations
Description: Thermal shift assay with DSF involved the use of LightCycler 480 Instrument (Roche Diagnostics). In total, a 15 µL mixture containing 8 × SYPRO Orange (Invitrogen) and 10 µM macrodomain protein in buffer containing 20 mM HEPES-NaOH, pH 7.5, and various concentrations of ADP-ribose or hit compounds was mixed on ice in a 384-well PCR plate (Roche). Fluorescent signals were measured from 25 to 95°C in 0.2°C/30/S steps (excitation, 470–505 nm; detection, 540–700 nm). The main measurements were carried out in triplicate. Data evaluation and Tm determination involved the use of the Roche LightCycler 480 Protein Melting Analysis software, and data fitting calculations involved the use of single-site binding curve analysis on GraphPad Prism. The thermal shift (ΔTm) was calculated by subtracting the Tm values of the DMSO from the Tm values of the compounds.

[4] = LogD determination, shake-flask method; format: physicochemical; details: octanol/PBS, pH 7.4
Description: In total, 0.11 mg of each compound was weighed out into 2 mL centrifuge tubes; 1 mL of octanol-saturated PBS or 0.1M HCl was added to each centrifuge tube and vortexed to dissolve. Then, 0.5–1.0 mL of the PBS-saturated octanol was added to the 0.5–1.0 mL octanol-saturated PBS supernatant and vortexed. Next, 100 μL of the octanol-saturated PBS phase from each centrifuge tube was added to separate UPLC vials; 100 μL of 50:50 MP H2O:ACN was added to each vial and vortexed. The remaining octanol-saturated PBS layer was removed from the vial using a micropipette and stored in a separate vial, and 100 μL of the PBS-saturated octanol layer from each centrifuge tube was added to separate UPLC vials. In total, 100 μL of 50:50 MP H2O:ACN was added to each vial and vortexed. These procedures were repeated in triplicate and then analyzed by UPLC/UV-VIS.

[5] = system: JHMV-nLuc; format: cell-based, murine hepatitis virus (MHV)
[6] = system: JHMV-WT; test: microbe, parasite or virus in culture; format: cell-based, murine hepatitis virus (MHV); details: for EC50: Murine coronavirus, read-out: EC50, % JHMV-WT inhibition on DBT cells
[7] = system: JHMV-WT; test: microbe, parasite or virus in culture; format: cell-based, murine hepatitis virus (MHV); details: for Inhibition of MHV, dose-response: 50 to 200 μM, stated for both DBT and L929 cells, better activity on DBT
[8] = system: JHMV; test: microbe, parasite or virus in culture; format: cell-based, murine hepatitis virus (MHV); details: for Concentration at which infectious virus production was inhibited: lowest effective concentration tested
[9] = system: SARS-CoV-2 (Wuhan strain); test: microbe, parasite or virus in culture; format: cell-based; details: for EC50: Severe acute respiratory syndrome coronavirus 2, Calu-3, presence of IFN-γ, estimated from fold reductions, read-out: EC50 against SARS-CoV-2
[10] = system: MERS-CoV; format: cell-based
[11] = system: DBT cells; test: Cell viability, MTT assay, DBT cells; format: cell-based; details: concentrations tested
Description: (§1) Delayed brain tumor (DBT), L929, and Calu3 Cellular metabolic activity was assessed using a CyQUANT MTT cell proliferation assay (Thermo Fisher Scientific) by following the manufacturer’s instructions.

[12] = system: L929 cells; test: Cell viability, MTT assay, L929 cells; format: cell-based; details: concentrations tested
Description: as §1

[13] = system: Calu-3 cells; test: Cell viability, MTT assay, Calu-3 cells; format: cell-based
Description: as §1

[14] = system: Mac1; details: cited from earlier work
[15] = read-out: Reported EC50; cited from earlier work
[16] = system: JHMV; format: cell-based, murine hepatitis virus (MHV); details: 150 μM
[17] = Calu-3, IFN-γ pre-treated (100 U), 12.5 μM
[18] = Calu-3, IFN-γ pre-treated (100 U), 25 μM

SMILES	IC50 [1]	IC50 [2] [µM]	DSF assay ΔTm [3] [°C]	logD [4]	JHMV-nLuc replication (luciferase activity), words [5]	EC50 [6] [µM]	Cell viability (MTT), words [11]	Cell viability (MTT), words [12]	also measured
CC(C)OC(=O)[C@H](Cc1c[nH]c2ccccc12)Nc1ncnc2[nH]ccc12 [Compound 5c]	3.66 µM	25.5	0.76	3.33	inhibited JHMV replication	18.3	do not impact the viability	do not impact the viability	Decrease in replication (infectious virus) ([6]; 50 μM, DBT cells): ~ 1.5 logs; Decrease in replication (infectious virus) ([7]; 50 μM, L929 cells): ~3 logs; EC50 ([7]; Murine coronavirus, L929, read-out: EC50, % JHMV-WT inhibition on L929 cells): 20 µM; EC50 ([8]; Murine coronavirus, 0 to 50 μM on DBT, and 17 Cl-1 cells, read-out: EC50 for inhibition of virus production): 10 to 20 µM; Concentration at which infectious virus production was inhibited [8]: 25 µM; Reduction of viral titers [9, 17]: 3 fold; Reduction of viral titers [9, 18]: 7.5 fold; Reduction of viral titers ([9]; Calu-3, absence of IFN-γ, 25 μM): ~ 2 fold; EC50 [9]: ≤ 12.5 µM; MERS-CoV replication [10]: did not inhibit MERS-CoV replication; Cell viability (MTT), words [13]: do not impact the viability
O=C(NCc1ccccn1)[C@@H](Cc1c[nH]c2ccccc12)Nc1ncnc2[nH]ccc12 [Compound 6e]	4.85 µM	39.6	1.17	–	inhibited light production from MHV replication in a dose-dependent manner	53.5	do not impact the viability	do not impact the viability	Inhibition of MHV, dose-response [7]: inhibited MHV in a dose-dependent manner; Reduction of viral titers [9, 17]: 2.7 fold; Reduction of viral titers [9, 18]: 3.8 fold; Infectious virus production ([9]; Calu-3, absence of IFN-γ, 0 to 25 μM): did not reduce infectious virus production; EC50 [9]: ≤ 12.5 µM; MERS-CoV replication [10]: did not inhibit MERS-CoV replication; Cell viability (MTT), words [13]: do not impact the viability
O=C(O)C(Cc1c[nH]c2ccccc12)Nc1ncnc2[nH]ccc12 (stereo not shown) [Compound 4a]	6.1 µM	> 100	4.32	-0.61	did not affect JHMV replication	–	do not impact the viability	do not impact the viability	Mac1 enzyme activity [14]: inhibited Mac1 enzyme activity
NC(=O)[C@H](Cc1c[nH]c2ccccc12)Nc1ncnc2[nH]ccc12 [Compound 6c]	4.04 µM	> 100	3.06	–	–	–	–	–	–
O=C(NCc1ccccn1)[C@H](Cc1c[nH]c2ccccc12)Nc1ncnc2[nH]ccc12 [Compound 6d]	7.58 µM	79.2	1.39	–	inhibited light production from MHV replication in a dose-dependent manner	77.1	do not impact the viability	do not impact the viability	Inhibition of MHV, dose-response [7]: inhibited MHV in a dose-dependent manner
N#C[C@@]1(c2ccc3c(N)ncnn23)O[C@H](CO)[C@@H](O)[C@H]1O [GS-441524, reference compound]	–	–	–	–	inhibited virus replication at all concentrations	–	–	–	EC50 [15]: ~0.84 µM
COC(=O)[C@H](Cc1c[nH]c2ccccc12)Nc1ncnc2[nH]ccc12 [Compound 5a]	14.1 µM	> 100	0.97	1.5	inhibited JHMV replication	–	do not impact the viability	do not impact the viability	Concentration at which infectious virus production was inhibited [8]: 200 µM; Fold change in PFU/mL, 5a versus DMSO ([16]; passage 1 (P1)): 3.17 X; Fold change in PFU/mL, 5a versus DMSO ([16]; passage 2 (P2)): -2.0 X; Fold change in PFU/mL, 5a versus DMSO ([16]; passage 3 (P3)): -1.1 X
O=C(O)C(Cc1c[nH]c2ccccc12)Nc1ncnc2[nH]ccc12 (stereo not shown) [Compound 4b]	1.66 µM and < 2 µM	> 100	4.46	–	did not affect JHMV replication	–	–	–	Bn-His IC50 (AlphaScreen counter screen) ([2]; unit not given): almost no inhibition
O=C(NCc1ccncc1)[C@H](Cc1c[nH]c2ccccc12)Nc1ncnc2[nH]ccc12 [Compound 6a]	8.37 µM	> 100	1.29	–	–	–	–	–	–
O=C(NCc1ccnc(Cl)c1)[C@H](Cc1c[nH]c2ccccc12)Nc1ncnc2[nH]ccc12 [Compound 6b]	7.57 µM	> 100	1.57	–	–	–	–	–	–
